Measured values taken from US20150133341A1, “Intra-Operative Cancer Diagnosis Based on a Hyperpolarized Marker” (ALBEDA INNOVATIONS APS, priority 2012, published 2015).

What was measured:
[1] = test system: carboxyl esterase in lysed lymphocytes (B + T cells); experiment: Carboxyl esterase activity in cell extract, 1H NMR; type: biochemical, human; conditions: 5 million lysed cells; for Metabolic conversion, Lymphocytes (B + T cells): 37° C.
Procedure: (§1) The hydrolysis of the substrates was investigated in cell extracts. To test substrates without isotope labelling for carboxyl esterase activity in a cellular background, a ^1H NMR assay was applied. Human breast cancer cells (MCF-7) and human prostate cancer cells (PC-3) were grown in RPMI medium with 10% FBS and antibiotics. They were at confluence harvested by trypsination and washed once with 5 ml PBS. They were spun down and resuspended in PBS to a concentration of 20 mill. cells/ml. The cells were hereafter sonicated on ice (50% amplitude, 1 min, 3 sec pulse). Human lymphocytes were purified from whole blood. Whole blood samples were drawn from healthy volunteer into heparinised venous blood collection tubes (Venosafe vacumtubes from Terumo). For each experiment, the blood was purified freshly: Three and a half 10 mL tubes of blood were pooled in each of four 50 mL Leucosep (Greiner) tubes prepared with 15 mL Histopaque 1077 (Sigma). The Leucosep tubes were spun for 15 min at 800× g at 24 C. The plasma was removed and the white blood cells were transferred to a 50 mL falcon tube by decanting and diluted 1:2 in PBS-Mg—Ca for a total volume of 50 mL. The cells were sedimented by centrifugation at 250×g for 60 min. Diluting with trypan blue and counting in hemocytometer determined the total number of lymphocytes before sedimentation. All cells were viable and the total number of cells in each cell batch was approx. 60 million. The lymphocytes were redissolved to a concentration of 20 million cells/ml. The cells were hereafter sonicated on ice (50% amplitude, 1 min, 3 sec pulse).
(§2) 250 μl sonicated cell suspension was mixed with 250 μl 400 mM phosphate buffer pH 7.3. This solution was transferred to a 5 mm NMR tube and warmed on a water bath to 37° C. The substrate was added (50 μl, 60 mM) and the tube turned for mixing before it was inserted into the spectrometer. The data was analyzed with MNOVA software and measured as percentage conversion of substrate calculated to account for the amount of substrate converted over 60 min; numbers are given in μmol/hour.

[2] = test system: carboxyl esterase in lysed breast cancer cells (MCF-7); experiment: Carboxyl esterase activity in cell extract, 1H NMR; type: biochemical, human; conditions: 5 million lysed cells; for Metabolic conversion, Breast cancer cells MCF-7: 37° C.
Procedure: as §1, §2

[3] = test system: carboxyl esterase in lysed prostate cancer cells (PC-3); experiment: Carboxyl esterase activity in cell extract, 1H NMR; type: biochemical, human; conditions: for Metabolic conversion, Prostate cancer cells PC-3: 37° C.
Procedure: as §1, §2

[4] = target: T1, CE-2 in lysed human breast cancer cells (MCF-7) (Homo sapiens, UniProt O00748); experiment: CE-2 activity on acetate esters in lysed MCF-7 cells, 1H NMR; type: biochemical; conditions: for k: 5 million lysed MCF-7 cells
T1 construct: endogenous in cells; host or cells: MCF-7 (sonicated lysate)
T1 sequence (O00748 27-559): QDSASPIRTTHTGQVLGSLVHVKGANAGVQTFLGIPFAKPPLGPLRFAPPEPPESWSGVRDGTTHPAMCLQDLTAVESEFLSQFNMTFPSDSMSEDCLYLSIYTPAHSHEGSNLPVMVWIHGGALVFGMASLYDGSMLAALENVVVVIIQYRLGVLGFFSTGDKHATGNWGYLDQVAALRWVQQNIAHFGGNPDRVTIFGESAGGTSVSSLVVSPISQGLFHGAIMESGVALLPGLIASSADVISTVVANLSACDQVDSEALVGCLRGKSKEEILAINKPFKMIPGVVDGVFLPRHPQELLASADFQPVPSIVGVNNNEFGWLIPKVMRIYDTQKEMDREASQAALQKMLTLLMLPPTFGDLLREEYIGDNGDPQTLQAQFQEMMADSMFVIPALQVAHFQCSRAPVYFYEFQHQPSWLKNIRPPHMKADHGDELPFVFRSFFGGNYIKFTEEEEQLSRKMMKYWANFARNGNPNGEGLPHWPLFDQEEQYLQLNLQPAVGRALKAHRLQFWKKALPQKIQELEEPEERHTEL
Procedure: Different classes of short chain esters, fulfilling the requirements for the hyperpolarization technique (stable, soluble, low molecular weight compounds (<400 Da), were evaluated as substrates for carboxyl esterases with the aim to identify esters as similar or better substrates for carboxyl esterases than 1,3-^13C2 ethyl acetoacetate. In most human cell types, including a wide range of cancer cells and lymphocytes, the activity of carboxyl esterase is dominated by the activities of isoforms 1 and 2 (CE-1 and CE-2). To measure exclusively the hydrolysis of carboxyl esterase from the CE-1 isoform, an isolated enzyme from porcine liver was applied. To measure almost exclusively the contribution of carboxyl esterase activity from the CE-2 isoform, human breast cancer cells (MCF-7) were employed. These cells are known from literature to express CE-2 but not to express CE-1 (Byun et al, 2008, Cancer letters 266:238-48). A group of esters was investigated as substrates for CE-1, which contained different structural features. […] Also esters with large alcohol groups and small acid groups were investigated. In this group, the acid part of the molecule was always acetate and different structural properties of the alcohol were investigated. These consisted of esters of un-substituted alcohols (examples ethyl acetate and butyl acetate), esters of branched chain alcohols (examples t-butyl acetate, ethyl 3-acetoxy butanoate and 2-acetoxy propionate), esters of aromatic alcohols (example benzyl acetate), esters of diols (example ethyleneglycol diacetate), esters of triols (example triacetin). Esters of alpha-keto acids were too unstable to be investigated in this assay. Esters of larger alcohols are not water soluble and therefore not relevant substrates for the purpose of the invention. Similarly, a group of esters which contained different structural features was investigated as substrates for CE-2. CE-2 substrates are described in the literature to consist of a small acid group and a larger alcohol group. All included esters were acetate esters (i.e. esters of acetic acid) in the interest of keeping the acid moiety the smallest possible. The acetate esters measured for CE-2 activity were therefore the same as those measured in the second group of possible substrates for CE-1. The CE-2 experiments were performed with lysed breast cancer cells (MCF-7). MCF-7 cells were grown in RPMI medium with 10% FBS and antibiotics. They were at confluence harvested by trypsination and washed once with 5 ml PBS. They were spun down and resuspended in PBS to a concentration of 20 mill. cells/ml. The cells were hereafter sonicated on ice (50% amplitude, 1 min, 3 sec pulse). 250 μl sonicated cell suspension was mixed with 250 μl 400 mM phosphate buffer pH 7.3. […] The substrate was added (50 μl, 60 mM) and the tube turned for mixing before it was inserted into the spectrometer. An initial spectrum was acquired and the sample was hereafter placed at 37° C. for 1 hour in a water bath. The sample was again inserted into the magnet and a second spectrum was recorded. The data was analysed with MNOVA software and measured as percentage conversion of substrate calculated to account for the amount of substrate converted over 60 min. The numbers are given in μmol/hour.

[5] = acetate vs ethyl ester function

| k ([4]; 37° C., 1 hour) | hydrolysis by CE-2, in words ([4]; lysed MCF-7 cells) | hydrolysis by CE-2, in words ([4]; lysed MCF-7 cells, listed as benzyl acetate) | Structure (SMILES) | Metabolic conversion, Lymphocytes (B + T cells) [1] | Metabolic conversion, Breast cancer cells MCF-7 [2] | Metabolic conversion, Prostate cancer cells PC-3 ([3]; 5 million lysed cells) | metabolic conversion in prostate cancer cells compared to lymphocytes ([3]; cell number basis, positive contrast) | Lymphocytes (B + T cells) Ratio acetate/ethyl [1, 5] | Breast cancer cells MCF-7 Ratio acetate/ethyl [2, 5] | Prostate cancer cells PC-3 Ratio acetate/ethyl ([3]; 5 million lysed cells, acetate vs ethyl ester function) | k (μmol/min), acetate ester ([4]; hydrolysis of the acetate ester function, lysed MCF-7 cells, 37° C., 1 hour) |
| --- | --- | --- | --- | --- | --- | --- | --- | --- | --- | --- | --- |
| 1.05 µmol/min | hydrolysed particularly fast | the best | CC(=O)OCc1ccccc1 [Benzyl acetate] | 0.39 µmol/h | 1.05 µmol/h | 22 µmol/h | ~60 times | – | – | – | – |
| 0.27 µmol/min | hydrolysed to a similar extent | – | CC(=O)OCC(COC(C)=O)OC(C)=O [Tri-acetin] | 0.18 µmol/h | 0.27 µmol/h | 1.8 µmol/h | – | – | – | – | – |

| Structure (SMILES) | k ([4]; 37° C., 1 hour) | hydrolysis by CE-2, in words ([4]; lysed MCF-7 cells) | hydrolysis by CE-2, in words ([4]; lysed MCF-7 cells, listed as benzyl acetate) | Metabolic conversion, Lymphocytes (B + T cells) [1] | Metabolic conversion, Breast cancer cells MCF-7 [2] | Metabolic conversion, Prostate cancer cells PC-3 ([3]; 5 million lysed cells) | metabolic conversion in prostate cancer cells compared to lymphocytes ([3]; cell number basis, positive contrast) | Lymphocytes (B + T cells) Ratio acetate/ethyl [1, 5] | Breast cancer cells MCF-7 Ratio acetate/ethyl [2, 5] | Prostate cancer cells PC-3 Ratio acetate/ethyl ([3]; 5 million lysed cells, acetate vs ethyl ester function) | k (μmol/min), acetate ester ([4]; hydrolysis of the acetate ester function, lysed MCF-7 cells, 37° C., 1 hour) |
| --- | --- | --- | --- | --- | --- | --- | --- | --- | --- | --- | --- |
| CCOC(=O)CC(C)OC(C)=O (centres unmarked) [ethyl 3-acetoxy butanoate] | – | hydrolysed to a similar extent | – | – | – | – | – | 1 | 2 | 9 | 0.18 µmol/min |
